The values below come from patent US9259416B2, “Pyrazolone compounds useful for treatment of cerebrovascular disorders associated with ischemic stroke” (MITSUBISHI TANABE PHARMA CORPORATION, priority 2004, dated 2016).

Structures are written as SMILES.

The test system of data set [1] is monkey middle cerebral artery occlusion. Nature of the data set: Dose response test with monkey (middle cerebral artery occlusion, infarct). It counts as in vivo, croo monkey. The following applies: Edaravone administered groups (0.1-0.4 mg/kg loading + 0.5-2.0 mg/kg/hr maintenance i.v.), 28 hours after occlusion. On the procedure: A croo monkey (3 years to 5 years old) was subjected to […], and then its body temperature was kept at around 37° C. The middle cerebral artery at around the branch of the left internal carotid artery was exposed, and the middle cerebral artery was occluded by electrocoagulation. Then, the administration was started as in Table 6. 28 hours after occlusion (just after administration), the whole brain was removed under deep anesthesia by excess pentobarbital administration, and coronary brain sections each having a thickness of 4 mm were cut out of the forehead. The brain sections were stained with 1 w/v % 2,3,5-triphenyltetrazolium chloride, and the infarct area was measured to calculate the infarct volume.
In the drug administered groups other than the solvent group, Edaravone was used as the drug and this was administered as in Table 6.

For the next data set, the system named is human serum proteins. The following applies: cited from earlier work.
Data set [2] has as its system rat middle cerebral artery occlusion and reperfusion model. Put plainly: Cerebral edema in rat middle cerebral artery occlusion and reperfusion model. It is filed as in vivo, Wistar rats. The method, then: After eight weeks to nine weeks old Wistar rats (220 to 260 g) were subjected to inhalation anesthesia with halothane, the inhalation anesthesia with 1% halothane (anesthesia; nitrous oxide: oxygen=7:3) was continued while fixing them in a dorsal position and maintaining their body temperature at around 37° C. In an infusion administration group and a bolus+infusion administration group, a catheter was placed in the femora vein. The right common carotid artery, external carotid artery and internal carotid artery were exposed and the common carotid artery and external carotid artery were ligated in order to occlude the middle cerebral artery. From the common carotid artery, a No. 4 nylon suture (plug) was inserted to occlude the middle cerebral artery. Three hours after occlusion of the middle cerebral artery, the plug was taken out from the common carotid artery and perfusion of the middle cerebral artery was resumed, and then the administration was started as in Table 3. Decapitation and surgical removal of the brain were performed three hours after reperfusion. After separation of the right and left cerebral cortex, the wet weight was measured. After drying at 130° C. for 24 hours, the dry weight was determined. A percentage water content was calculated in accordance with the following equation: (wet weight (g)−dry weight (g))/wet weight (g)×100. The constitution and dose of each group are shown below in Table 3. It is to be noted that to the drug administered groups other than the control group, Edaravone was administered as a drug in accordance with Table 3.

Data set [3] deals with rat middle cerebral artery occlusion. Put plainly: Dose response test with rat (middle cerebral artery occlusion/reperfusion, infarct). It counts as in vivo, Crj:CD(SD) male rats. On the procedure: Seven weeks to eight weeks old Crj:CD(SD) male rats (190 to 250 g) were subjected to anesthesia with isoflurane, and were fixed in a dorsal position with their body temperature kept at around 37° C. A catheter for drug administration was placed in the cervical vein. The right common carotid artery, external carotid artery and internal carotid artery were exposed and the common carotid artery and external carotid artery were ligated in order to occlude the middle cerebral artery. From the branch of the external carotid artery and the internal carotid artery, a silicone-coated No. 4 nylon suture (plug) was inserted to occlude the middle cerebral artery. Two hours after occlusion of the middle cerebral artery, the plug was taken out and perfusion of the middle cerebral artery was resumed, and then the administration was started as in Table 5. Decapitation and surgical removal of the brain were performed 24 hours after reperfusion. Five brain sections each having a thickness of 2 mm (from the bregma part, from 2 mm before and behind parts of the bregma, and from 4 mm before and behind parts of the bregma) were prepared. The brain sections were stained with 1 w/v % 2,3,5-triphenyltetrazolium chloride, and the infarct area was measured to calculate the infarct volume. […]

Another data set concerns rat serum proteins. As to conditions: cited from earlier work.

Regarding `CC1=NN(c2ccccc2)C(=O)C1` [Edaravone, 1-phenyl-3-methyl-2-pyrazolin-5-one], the “infarct volume compared with control group” value is “small” in data set [1] and “small” in data set [3] (Edaravone administered groups (0.05-0.2 mg/kg loading + 0.25-1.0 mg/kg/hr maintenance i.v.), 24 hours after reperfusion). The “binding ratio with serum proteins” value with human serum proteins was 91.9%; in the data set with rat serum proteins, 85.8%. Also, the “increase in percentage water content of cortex” value is “almost equal” in data set [2] (bolus group, 3 mg/kg i.v. immediately after reperfusion, brain removed 3 h after reperfusion); “lowest” in data set [2] (bolus+infusion group, 0.2 mg/kg i.v. + 1 mg/kg/hr i.v. for 2.75 hours); “almost equal” in data set [2] (infusion group, 1 mg/kg/hr i.v. for 3 hours after reperfusion). Also, the infarct area result in data set [3] (0.1 mg/kg+0.5 mg/kg/hr i.v., P<0.05 vs physiological saline) is reported as “significantly decreased”.
